In patent US20040106124A1, “Methods for improving the treatment of major depression by genotyping for the gene for apolipoproteine e4 and for improving the terapeutic response of humans having major depression and carrying the gene for apolipoprotein e4” (priority 2001, published 2004):

Legend:
[1] = tested on: patients 65 years of age and older with major depression; assay: Mini Mental State Examination (MMSE), cognition, in 8-week double-blind comparison; assay type: in vivo, human; conditions: for mean MMSE score, ε4 carriers compared with noncarriers: week 8, full cohort, analysis of covariance
Description: (§1) A multi-center, randomized, double-blind, 8-week comparison of paroxetine and mirtazapine was performed for 246 nondemented, cognitively intact patients 65 years of age and older with major depression. All patients were genotyped at the apoE locus as discussed further below.
(§2) After an initial evaluation period, the mirtazapine patients started with a 15 mg dose per day. After two weeks of treatment (Day 14), patients' dosages were raised to 30 mg per day. […] Subjects who rate “Much Improved” or “Very Much Improved” on the CGI Scale I continued on the same dose they were receiving during the previous week.
(§3) For paroxetine, the dosing system was the same, except that the starting dosage was 20 mg per day, raised to 30 mg per day, and to a maximum of 40 mg per day.
This test represents a brief standardized method to grade cognitive mental status. The test assesses orientation, attention, immediate and short-term recall, language, and the ability to follow verbal and written commands. The lower the score, the lower the cognitive mental status.
To screen patients for the gene, genomic DNA was extracted from EDTA-treated whole blood using the Puregene DNA extraction kit (available from Gentra Systems). […] J. Psychiatr. 154:603-608, 1997. Genotypes were determined by two observers blind as to the clinical or neuropathological diagnosis.
All statistical analyses were performed using the SAS software package (available from SAS Institute). […] For remitter and responder analyses of clinical measures of depression, Cochran-Mantel-Haenszel statistics were used. For comparison of medication and genotype groups on baseline demographic measures, two-way analyses of variance were used.

[2] = tested on: patients 65 years of age and older with major depression; assay: Discontinuation due to adverse events in 8-week double-blind comparison; assay type: in vivo, human
Description: (§4) All statistical analyses were performed using the SAS software package (available from SAS Institute). For clinical measures of depression (HDRS-21, HDRS-17, GDS, and CGI), analyses of covariance were performed with baseline values as the covariate, and apoE genotype (ε4 allele carrier vs. non-carder) and medication (mirtazapine, paroxetine) as the predictors. For remitter and responder analyses of clinical measures of depression, Cochran-Mantel-Haenszel statistics were used. For comparison of medication and genotype groups on baseline demographic measures, two-way analyses of variance were used.

[3] = tested on: patients 65 years of age and older with major depression; assay: Geriatric Depression Scale (GDS) in 8-week double-blind comparison; assay type: in vivo, human; conditions: for GDS scores, ε4 carriers compared with noncarriers / 50% reduction in GDS score, ε4 carriers compared with those without an ε4 allele / GDS scores, patients with an ε4 allele compared with those without: day 14; for GDS scores, ε4 carriers compared with noncarriers: Caucasian patients; for 50% reduction in GDS score, ε4 carriers compared with those without an ε4 allele / GDS scores, patients with an ε4 allele compared with those without / 50% reduction in GDS score, ε4 carriers compared with noncarriers: full cohort; for number of patients showing a 50% reduction in GDS, ε4 carriers compared with noncarriers / 50% reduction in GDS score, ε4 carriers compared with noncarriers: day 28; for number of patients showing a 50% reduction in GDS, ε4 carriers compared with noncarriers: Caucasian subjects
Description: Geriatric Depression Scale (GDS) (Yesavage, J. A. et al., J. Psychiatr. Res. 17:37-49, 1983), a self-rating scale developed specifically for rating depression in the elderly. In the GDS, a lower rating signifies less depression. GDS 50% responders are defined as subjects with a decrease on a post-baseline assessment of at least 50% as compared to baseline.
(§5) J. Psychiatr. 154:603-608, 1997.
as §4

[4] = tested on: patients 65 years of age and older with major depression; assay: Hamilton Depression Rating Scale (HDRS-17, HDRS-21) in 8-week double-blind comparison of paroxetine and mirtazapine; assay type: in vivo, human; conditions: for HDRS-21 scores, ε4 carriers compared with those without an ε4 allele: interaction p=0.033; for HDRS-17 scores, ε4 carriers compared with those without an ε4 allele: interaction p=0.036; for HDRS-21 50% responders: patients carrying an ε4 allele; for rate and onset of antidepressant response, mirtazapine compared with paroxetine: early weeks of treatment, summary of the example
From the text: Hamilton Depression Rating Scale (HDRS; 17 and 21 item versions of a structured interview) (Hamilton, M., J. Neurol. Neurosurg. Psychiatr. 23:56-62, 1960; Hamilton, M., Br. J. Soc. Clin. Psychol. 6:278-296,1967). […] In other words, a lower rating in the HDRS scale signifies less depression. In contrast, HDRS remitters, which are those patients showing the least depression, are defined as subjects who have an HDRS-17 score of less than 7 at a post-baseline visit.
as §5, §4

[5] = tested on: patients 65 years of age and older with major depression; assay: Clinical Global Impression Scale (CGI) in 8-week double-blind comparison; assay type: in vivo, human; conditions: day 14; for CGI scores, ε4 carriers compared with those without an ε4 allele: interaction p=0.029
From the text: Clinical Global Impression Scale (CGI) (Guy, W., ECDEU Assessment Manual for Psychopharmacology, DHEW Publication No. (ADM) 76-338, rev. 1976). The CGI scale is a global 7-point rating of the severity of the illness taking into account the preceding week (CGI-Severity) and a global 7-point rating of the clinical status of the subject since baseline (CGI-Change). A responder is defined as being “Much Improved” or “Very Much Improved”—having a CGI score of at least 2 according to CGI-Change. Thus, a higher CGI-Severity score corresponds to more severe depression whereas a higher CGI-Change score corresponds to lessened depression, or an improvement in alleviating the symptoms of depression.
as §5, §4

[6] = Plasma drug concentrations in 8-week double-blind comparison
Description: as §1, §2, §3

[7] = day 14, Caucasian patients, p=0.006
[8] = day 14, patients with an ε4 allele, full cohort

CN1CCN2c3ncccc3Cc3ccccc3C2C1 (stereo not shown) [mirtazapine, 1,2,3,4,10,14b-hexahydro-2-methylpyrazino [2,1-a]pyrido[2,3-c]benzazepine]
mean MMSE score, ε4 carriers compared with noncarriers [1]: no effect
number of patients who discontinued due to adverse events, ε4 carriers compared with noncarriers ([2]; in vivo): no significant differences
GDS scores, ε4 carriers compared with noncarriers [3]: significantly lower
50% reduction in GDS score, ε4 carriers compared with those without an ε4 allele [3]: significantly more likely
GDS scores, patients with an ε4 allele compared with those without [3]: large decrease
number of patients showing a 50% reduction in GDS, ε4 carriers compared with noncarriers [3]: significantly more
50% reduction in GDS score, ε4 carriers compared with noncarriers [3]: significantly more
improvement in HDRS-17 scores, mirtazapine-treated compared with paroxetine-treated patients ([4]; day 7, full cohort): significantly greater improvement
HDRS scores, improvement of ε4 carriers compared with noncarriers ([4]; day 14, Caucasian patients): greater improvement
mean HDRS-17 scores, mirtazapine compared with paroxetine [4, 7]: significantly lower
mean HDRS-21 scores, mirtazapine compared with paroxetine [4, 7]: significantly lower
percentage of ε4 carriers responding to medication treatment (50% reduction in HDRS-17, HDRS-21, HDRS-17 remission, 50% reduction in GDS), mirtazapine compared with paroxetine ([4]; day 14, Caucasian subjects): greater
improvement in HDRS-17 scores, mirtazapine-treated compared with paroxetine-treated patients ([4]; day 14, full cohort): Significantly greater improvement
improvement in HDRS-21 scores, mirtazapine-treated compared with paroxetine-treated patients ([4]; day 14, full cohort): Significantly greater improvement
HDRS-21 scores, ε4 carriers compared with those without an ε4 allele ([4]; day 14, full cohort): significantly lower scores
HDRS-17 scores, ε4 carriers compared with those without an ε4 allele ([4]; day 14, full cohort): significantly lower scores
HDRS-17 50% responders, ε4 carriers compared with those without an ε4 allele ([4]; day 14, full cohort, p=0.049): significantly more
HDRS-21 50% responders ([4]; day 14, full cohort): 48%
HDRS-17 remitters [4, 8]: 28%
HDRS-17 remitters ([4]; day 14, patients without an ε4 allele, full cohort): 7.1%
rate and onset of antidepressant response, mirtazapine compared with paroxetine [4]: higher rate of antidepressant response
CGI scores, ε4 carriers compared with noncarriers ([5]; Caucasian patients): significantly better
CGI scores, mirtazapine treated compared with paroxetine treated subjects ([5]; Caucasian patients, p=0.037): significantly better
improvement in CGI scores, mirtazapine-treated compared with paroxetine-treated patients ([5]; full cohort): Significantly greater improvement
CGI scores, ε4 carriers compared with those without an ε4 allele ([5]; full cohort): significantly lower scores
plasma drug concentrations, ε4 carriers compared with non-ε4 carriers ([6]; in vivo): no differences

Fc1ccc([C@@H]2CCNC[C@H]2COc2ccc3c(c2)OCO3)cc1 [paroxetine]
MMSE score, subjects with an ε4 allele compared with those without ([1]; Caucasian subjects, trend, p=0.05): lower MMSE score
mean MMSE score, ε4 carriers compared with noncarriers [1]: significantly lower
number of patients who discontinued due to adverse events, ε4 carriers compared with noncarriers ([2]; Caucasian subjects): no significant differences
number of patients who discontinued due to adverse events, ε4 carriers compared with noncarriers ([2]; full cohort): no significant differences
GDS scores, ε4 carriers compared with noncarriers [3]: no effect
50% reduction in GDS score, ε4 carriers compared with those without an ε4 allele [3]: no difference
GDS scores, patients with an ε4 allele compared with those without [3]: no significant difference
number of patients showing a 50% reduction in GDS, ε4 carriers compared with noncarriers [3]: no significant effect
50% reduction in GDS score, ε4 carriers compared with noncarriers [3]: no effect
HDRS scores, improvement of ε4 carriers compared with noncarriers ([4]; day 14, Caucasian patients): less improvement
HDRS-21 scores, ε4 carriers compared with those without an ε4 allele ([4]; day 14, full cohort): higher scores
HDRS-17 scores, ε4 carriers compared with those without an ε4 allele ([4]; day 14, full cohort): higher scores
HDRS-21 50% responders ([4]; day 14, full cohort): none
HDRS-17 50% responders (50% decrease in HDRS-17 score over baseline) [4, 8]: none
HDRS-17 remitters [4, 8]: none
rate and onset of antidepressant response, mirtazapine compared with paroxetine [4]: slower onset of anti-depressant action
CGI scores, ε4 carriers compared with noncarriers ([5]; Caucasian patients): no differences
CGI scores, ε4 carriers compared with those without an ε4 allele ([5]; full cohort): higher scores
plasma drug concentrations, ε4 carriers compared with non-ε4 carriers ([6]; Caucasian subjects): no differences
plasma drug concentrations, ε4 carriers compared with non-ε4 carriers ([6]; full cohort): no differences
